In article PMC10628300, “Dual function of OmpM as outer membrane tether and nutrient uptake channel in diderm Firmicutes” (Nature Communications, 2023):

Columns and labels:
[1] = molecular target: T1, EcOmpF (Escherichia coli, UniProt P02931); assay: proteoliposome swelling, decrease in A400; type: biochemical; conditions: diffusive transport through general porin, no binding constant, 10 mM HEPES-NaOH pH 7.5, 12 mM stachyose inside
T1 construct: gene ompF; full-length, untagged (pBAD24-EcOmpF), expressed in E. coli BL21(DE3), purified from outer membranes; trimer; reconstituted in liposomes
T1 sequence (P02931 23-362): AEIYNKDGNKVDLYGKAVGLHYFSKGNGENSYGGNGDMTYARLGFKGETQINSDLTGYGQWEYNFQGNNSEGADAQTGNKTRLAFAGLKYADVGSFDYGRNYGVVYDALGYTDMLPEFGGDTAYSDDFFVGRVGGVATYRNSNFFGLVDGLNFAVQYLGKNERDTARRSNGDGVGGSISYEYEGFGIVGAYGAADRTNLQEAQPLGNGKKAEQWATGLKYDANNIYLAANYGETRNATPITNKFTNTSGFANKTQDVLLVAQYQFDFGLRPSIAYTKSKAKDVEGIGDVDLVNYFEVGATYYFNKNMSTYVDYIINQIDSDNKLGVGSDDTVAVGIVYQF

[2] = molecular target: VpOmpM1 (OmpM1 from Veillonella parvula), full-length, expressed in E. coli (Veillonella parvula); assay: cryo-EM structure; single particle; purified VpOmpM1 from E. coli (11.6 mg/ml) or V. parvula (8 mg/ml) in DM detergent, grids plunge-frozen at 4 °C; reconstructions without symmetry (C1) and with C3
[3] = molecular target: T2, VpOmpM1 (full-length) (Veillonella parvula, UniProt A0A100YN03); assay: proteoliposome swelling, decrease in A400; type: biochemical; conditions: diffusive transport through general porin, no binding constant; 10 mM HEPES-NaOH pH 7.5, 12 mM stachyose inside; rates normalised to EcOmpF with arabinose
T2 construct: gene KHZ90_07665; full-length without native signal peptide; E. coli TamB signal peptide and N-terminal His7 added (pJW46); expressed in E. coli C43(DE3) delta-cyoABCD; homotrimer; reconstituted in liposomes

[4] = molecular target: T3, FNLLGLLA_00518 β-barrel (OmpA-like) (Veillonella parvula, UniProt A0AB38YQ02); assay: proteoliposome swelling, decrease in A400; type: biochemical; conditions: diffusive transport through channel, no binding constant; much slower than VpOmpM1 and EcOmpF; 10 mM HEPES-NaOH pH 7.5, 12 mM stachyose inside
T3 construct: gene CYJ21_000020; beta-barrel region, residues 21-200 (from plasmid name pB22-00518_21-200); TamB signal peptide and N-terminal His7; expressed in E. coli C43(DE3) delta-cyoABCD; reconstituted in liposomes

[5] = molecular target: VpOmpM1 stalk construct (residues 22-107) (Veillonella parvula); assay: crystal structure; stalk construct 22-107 at ~20 mg/ml; 0.1 M citric acid pH 3.5, 2.0 M ammonium sulphate, 20 °C; three chains in the asymmetric unit

| Compound | proteoliposome swelling, decrease in A400 [3] | proteoliposome swelling, decrease in A400 [4] | other results |
| --- | --- | --- | --- |
| OC1OC[C@H](O)[C@H](O)[C@H]1O (some centres unmarked) [arabinose] |  |  | proteoliposome swelling, decrease in A400 ([1]; reference condition to which all rates are normalised): All data were normalized to EcOmpF-containing liposome swelling in the presence of arabinose |
| VpOmpM1 (OmpM1 from Veillonella parvula), full-length, expressed in E. coli (natural protein) |  |  | stoichiometry N [2]: 3 |
| C[C@H](O)C(=O)O [lactate] | VpOmpM1 could transport lactate, which is essential for V. parvula growth, and putrescine |  |  |
| NCC(=O)O [glycine] |  | could only transport putrescine and glycine at much slower rates than VpOmpM1 and EcOmpF |  |
| NCCCCN [putrescine] | VpOmpM1 could transport lactate, which is essential for V. parvula growth, and putrescine | could only transport putrescine and glycine at much slower rates than VpOmpM1 and EcOmpF | proteoliposome swelling, decrease in A400 ([1]; rates normalised to EcOmpF with arabinose): putrescine and glycine at much slower rates than VpOmpM1 and EcOmpF |
| VpOmpM1 stalk construct (residues 22-107) (domain or fragment) |  |  | stoichiometry N [5]: 3 |
